According to publication PMC8252718, “carba Nicotinamide Adenine Dinucleotide Phosphate: Robust Cofactor for Redox Biocatalysis” (Angewandte Chemie (International Ed. in English), 2021):

How the values were obtained:
Assay in all cases: activity assay
Type in all cases: biochemical
CHMO = molecular target: T1, CHMO (Acinetobacter johnsonii, UniProt P12015)
T1 construct: gene chnB; details only in supplement

AspRedAm = molecular target: T2, AspRedAm (Aspergillus oryzae, UniProt Q2TW47); conditions: 100 mM Tris-HCl pH 8.2, 5 mM hexanal, 10 mM amine, 1 mM cofactor, 30 °C
T2 construct: gene AO090010000708; details only in supplement
T2 sequence (Q2TW47 1-295): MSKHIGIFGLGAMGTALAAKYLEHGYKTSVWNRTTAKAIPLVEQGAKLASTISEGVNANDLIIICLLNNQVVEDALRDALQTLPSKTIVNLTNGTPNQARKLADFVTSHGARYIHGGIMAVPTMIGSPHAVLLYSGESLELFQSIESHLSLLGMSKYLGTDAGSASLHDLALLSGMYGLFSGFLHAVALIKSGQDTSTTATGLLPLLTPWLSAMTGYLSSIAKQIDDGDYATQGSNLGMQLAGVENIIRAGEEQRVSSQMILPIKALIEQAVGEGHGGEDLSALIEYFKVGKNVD

TsER = molecular target: T3, TsER (Thermus scotoductus, UniProt B0JDW3)
T3 construct: gene chrR; details only in supplement

T1 sequence (P12015 whole entry): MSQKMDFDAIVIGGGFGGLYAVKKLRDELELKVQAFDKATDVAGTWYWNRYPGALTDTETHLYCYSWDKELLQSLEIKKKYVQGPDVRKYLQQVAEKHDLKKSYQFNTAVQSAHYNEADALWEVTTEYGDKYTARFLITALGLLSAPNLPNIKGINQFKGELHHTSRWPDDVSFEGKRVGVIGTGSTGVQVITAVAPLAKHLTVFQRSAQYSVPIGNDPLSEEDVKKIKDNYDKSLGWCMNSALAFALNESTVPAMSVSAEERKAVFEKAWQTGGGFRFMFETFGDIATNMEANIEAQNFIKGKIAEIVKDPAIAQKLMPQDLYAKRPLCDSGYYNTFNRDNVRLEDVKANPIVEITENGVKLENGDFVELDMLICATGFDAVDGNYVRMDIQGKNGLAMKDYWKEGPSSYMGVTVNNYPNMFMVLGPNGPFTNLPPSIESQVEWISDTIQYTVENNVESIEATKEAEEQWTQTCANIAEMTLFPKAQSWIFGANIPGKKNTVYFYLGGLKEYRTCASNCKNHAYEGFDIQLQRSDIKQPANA

With NC(=O)C1=CN([C@@H]2C[C@H](COP(=O)(O)OP(=O)(O)OC[C@H]3O[C@@H](n4cnc5c(N)ncnc54)[C@H](OP(=O)(O)O)[C@@H]3O)[C@@H](O)[C@H]2O)C=CC1 [carba-NADPH] the activity assay (CHMO) was “two Baeyer‐Villiger‐monoxygenases (CHMO and HAPMO)”, the activity assay (AspRedAm) was “Both gave comparable results with the natural and carba cofactor” and the activity assay (TsER) was “enoate reductase (TsER from Thermus scotoductus)”.
